Literature values in US8445670B2, “Combinatorial library approach to iminocyclitols with biological activity” (United Therapeutics Corporation, priority 2005, dated 2013).

System: bovine viral diarrhoea virus (BVDV)
Settings: reference DNJ derivatives, values given with literature references

Q: With `CCCCN1C[C@H](O)[C@@H](O)[C@H](O)[C@H]1CO` [N-n-butyl DNJ] as the compound, how does the IC50 read?
A: 125 µM

Q: For `CCCCCCCCCN1C[C@H](O)[C@@H](O)[C@H](O)[C@H]1CO` [N-n-nonyl DNJ], which IC50 is on record?
A: 10 µM
